# Tested on: EpidermFT™ Skin Model (EFT-400) full thickness skin cultures
# Experiment: Affymetrix GeneChip HG U133 Plus 2.0 microarray global gene expression, agent-exposed vs untreated skin cultures
# Assay type: cell-based, human
# [1] = Salicin 0.5% vs Untreated Control, 24 hr, direction down
# [2] = probe 201286_at, Table 3 skin structure
# [3] = probe 203535_at, Table 3 skin structure
# [4] = probe 204422_s_at, Table 3 skin structure
smiles,measurement,setting,value
"OCc1ccccc1O[C@@H]1O[C@H](CO)[C@@H](O)[C@H](O)[C@H]1O [Salicin, 2-(Hydroxymethyl)phenyl β-D-glucospyranoside]",Fold change WNK1 (211993_at),[1],2.037
same,Fold change ZBTB1 (1557036_at),[1],2.05
same,Fold change ZDHHC21 (241946_at),[1],2.09
same,Fold change ZFYVE21 (219929_s_at),[1],2.001
same,Fold change ZHX1 (223213_s_at),[1],2.071
same,Fold change ZHX1 (223214_s_at),[1],2.15
same,Fold change ZNF85 (1554445_at),[1],2.143
same,Fold change ZNF561 (235200_at),[1],2.135
same,Fold change ZNF589 (219968_at),[1],2.059
same,Fold change ZNF823 (229732_at),[1],2.045
same,Direction DSP,"probe 200606_at, 0.5%, 24 hr",down
same,Fold change DSP,"probe 200606_at, 0.5%, 24 hr",2.848
same,Direction HSPA1A /// HSPA1B,"probe 200800_s_at, 0.5%, 24 hr",up
same,Fold change HSPA1A /// HSPA1B,"probe 200800_s_at, 0.5%, 24 hr",3.112
same,Direction SCD,"probe 200832_s_at, 0.5%, 24 hr",down
same,Fold change SCD,"probe 200832_s_at, 0.5%, 24 hr",3.77
same,Direction ABLIM1,"probe 200965_s_at, 0.5%, 24 hr",down
same,Fold change ABLIM1,"probe 200965_s_at, 0.5%, 24 hr",11.88
same,Direction TGM2,"probe 201042_at, 0.5%, 24 hr",up
same,Fold change TGM2,"probe 201042_at, 0.5%, 24 hr",2.351
same,Direction DUSP1,"probe 201044_x_at, 0.5%, 24 hr",up
same,Fold change DUSP1,"probe 201044_x_at, 0.5%, 24 hr",3.726
same,Direction TIMP3,"probe 201150_s_at, 0.5%, 24 hr",up
same,Fold change TIMP3,"probe 201150_s_at, 0.5%, 24 hr",2.058
same,Direction SDC1,[2],down
same,Fold change SDC1,[2],4.63
same,Direction SDC1,"probe 201287_s_at, 0.5%, 24 hr",down
same,Fold change SDC1,"probe 201287_s_at, 0.5%, 24 hr",3.32
same,Direction CLDN4,"probe 201428_at, 0.5%, 24 hr",down
same,Fold change CLDN4,"probe 201428_at, 0.5%, 24 hr",3.454
same,Direction ITGA3,"probe 201474_s_at, 0.5%, 24 hr",down
same,Fold change ITGA3,"probe 201474_s_at, 0.5%, 24 hr",2.052
same,Direction NFKBIA,"probe 201502_s_at, 0.5%, 24 hr",up
same,Fold change NFKBIA,"probe 201502_s_at, 0.5%, 24 hr",3.064
same,Direction ITGA6,"probe 201656_at, 0.5%, 24 hr",down
same,Fold change ITGA6,"probe 201656_at, 0.5%, 24 hr",4.442
same,Direction KRT5,"probe 201820_at, 0.5%, 24 hr",down
same,Fold change KRT5,"probe 201820_at, 0.5%, 24 hr",2.154
same,Direction EPCAM,"probe 201839_s_at, 0.5%, 24 hr",down
same,Fold change EPCAM,"probe 201839_s_at, 0.5%, 24 hr",2.093
same,Direction PLAT,"probe 201860_s_at, 0.5%, 24 hr",up
same,Fold change PLAT,"probe 201860_s_at, 0.5%, 24 hr",4.229
same,Direction ALDH3A2,"probe 202053_s_at, 0.5%, 24 hr",down
same,Fold change ALDH3A2,"probe 202053_s_at, 0.5%, 24 hr",4.399
same,Direction TUBB3,"probe 202154_x_at, 0.5%, 24 hr",down
same,Fold change TUBB3,"probe 202154_x_at, 0.5%, 24 hr",2.967
same,Direction NR4A1,"probe 202340_x_at, 0.5%, 24 hr",up
same,Fold change NR4A1,"probe 202340_x_at, 0.5%, 24 hr",2.338
same,Direction IFI27,"probe 202411_at, 0.5%, 24 hr",down
same,Fold change IFI27,"probe 202411_at, 0.5%, 24 hr",4.671
same,Direction ACSL4,"probe 202422_s_at, 0.5%, 24 hr",up
same,Fold change ACSL4,"probe 202422_s_at, 0.5%, 24 hr",3.786
same,Direction HSPA13,"probe 202558_s_at, 0.5%, 24 hr",up
same,Fold change HSPA13,"probe 202558_s_at, 0.5%, 24 hr",3.13
same,Direction EPS8,"probe 202609_at, 0.5%, 24 hr",up
same,Fold change EPS8,"probe 202609_at, 0.5%, 24 hr",2.334
same,Direction TNFAIP3,"probe 202643_s_at, 0.5%, 24 hr",up
same,Fold change TNFAIP3,"probe 202643_s_at, 0.5%, 24 hr",6.915
same,Direction TNFSF10,"probe 202687_s_at, 0.5%, 24 hr",down
same,Fold change TNFSF10,"probe 202687_s_at, 0.5%, 24 hr",20.31
same,Direction FOXO1,"probe 202724_s_at, 0.5%, 24 hr",up
same,Fold change FOXO1,"probe 202724_s_at, 0.5%, 24 hr",2.098
same,Direction SPINT1,"probe 202826_at, 0.5%, 24 hr",down
same,Fold change SPINT1,"probe 202826_at, 0.5%, 24 hr",4.585
same,Direction DNAJB9,"probe 202843_at, 0.5%, 24 hr",up
same,Fold change DNAJB9,"probe 202843_at, 0.5%, 24 hr",3.56
same,Direction FBN2,"probe 203184_at, 0.5%, 24 hr",up
same,Fold change FBN2,"probe 203184_at, 0.5%, 24 hr",2.028
same,Direction S100A9,[3],down
same,Fold change S100A9,[3],2.59
same,Direction LPL,"probe 203549_s_at, 0.5%, 24 hr",up
same,Fold change LPL,"probe 203549_s_at, 0.5%, 24 hr",4.075
same,Direction PDE4B,"probe 203708_at, 0.5%, 24 hr",up
same,Fold change PDE4B,"probe 203708_at, 0.5%, 24 hr",5.314
same,Direction AQP3,"probe 203747_at, 0.5%, 24 hr",down
same,Fold change AQP3,"probe 203747_at, 0.5%, 24 hr",2.032
same,Direction DNAJB4,"probe 203810_at, 0.5%, 24 hr",up
same,Fold change DNAJB4,"probe 203810_at, 0.5%, 24 hr",2.053
same,Direction MAP3K5,"probe 203836_s_at, 0.5%, 24 hr",up
same,Fold change MAP3K5,"probe 203836_s_at, 0.5%, 24 hr",2.356
same,Direction THBD,"probe 203887_s_at, 0.5%, 24 hr",down
same,Fold change THBD,"probe 203887_s_at, 0.5%, 24 hr",3.137
same,Direction PLCB4,"probe 203896_s_at, 0.5%, 24 hr",up
same,Fold change PLCB4,"probe 203896_s_at, 0.5%, 24 hr",4.016
same,Direction FABP4,"probe 203980_at, 0.5%, 24 hr",up
same,Fold change FABP4,"probe 203980_at, 0.5%, 24 hr",2.251
same,Direction LPAR1,"probe 204038_s_at, 0.5%, 24 hr",up
same,Fold change LPAR1,"probe 204038_s_at, 0.5%, 24 hr",2.732
same,Direction FILIP1L,"probe 204135_at, 0.5%, 24 hr",down
same,Fold change FILIP1L,"probe 204135_at, 0.5%, 24 hr",2.996
same,Direction TUBB2A,"probe 204141_at, 0.5%, 24 hr",down
same,Fold change TUBB2A,"probe 204141_at, 0.5%, 24 hr",2.739
same,Direction ELOVL6,"probe 204256_at, 0.5%, 24 hr",down
same,Fold change ELOVL6,"probe 204256_at, 0.5%, 24 hr",3.121
same,Direction EDNRB,"probe 204273_at, 0.5%, 24 hr",up
same,Fold change EDNRB,"probe 204273_at, 0.5%, 24 hr",3.916
same,Direction FGFR3,"probe 204379_s_at, 0.5%, 24 hr",down
same,Fold change FGFR3,"probe 204379_s_at, 0.5%, 24 hr",5.288
same,Direction FGF2,"probe 204421_s_at, 0.5%, 24 hr",up
same,Fold change FGF2,"probe 204421_s_at, 0.5%, 24 hr",3.845
same,Direction FGF2,[4],up
same,Fold change FGF2,[4],3.455
same,Direction COL17A1,"probe 204636_at, 0.5%, 24 hr",down
same,Fold change COL17A1,"probe 204636_at, 0.5%, 24 hr",3.576
same,Direction KLK6,"probe 204733_at, 0.5%, 24 hr",down
same,Fold change KLK6,"probe 204733_at, 0.5%, 24 hr",16.28
same,Direction KRT15,"probe 204734_at, 0.5%, 24 hr",down
same,Fold change KRT15,"probe 204734_at, 0.5%, 24 hr",3.6
same,Direction SMAD7,"probe 204790_at, 0.5%, 24 hr",up
same,Fold change SMAD7,"probe 204790_at, 0.5%, 24 hr",2.151
same,Direction PTGER4,"probe 204897_at, 0.5%, 24 hr",up
same,Fold change PTGER4,"probe 204897_at, 0.5%, 24 hr",2.525
same,Direction INFRSF11B,"probe 204932_at, 0.5%, 24 hr",up
same,Fold change INFRSF11B,"probe 204932_at, 0.5%, 24 hr",6.287

# — patent publication US20120034613A1, “Apparatus and Method for Testing Relationships Between Gene Expression and Physical Appearance of Skin” (NSE Products, Inc., priority 2010, published 2012)
